# Measurements reported in US20230416199A1, “INHIBITORS OF AMINO ACID TRANSPORT” (ICAHN SCHOOL OF MEDICINE AT MOUNT SINAI, priority 2020, published 2023).
# Read-outs that look alike come from different tables or passages of the source.
# How the values were obtained:
# Assay type in all cases: cell-based
# rASCT2 = biological target: T1, rASCT2 (Rattus norvegicus, UniProt D3ZJ25); test: Electrophysiology (whole-cell current recording) of transfected HEK293 cells, rASCT2
# T1 construct: expressed in transfected cells; host or cells: HEK293 (ATCC CRL-11268), transient transfection
# T1 sequence (D3ZJ25 1-555): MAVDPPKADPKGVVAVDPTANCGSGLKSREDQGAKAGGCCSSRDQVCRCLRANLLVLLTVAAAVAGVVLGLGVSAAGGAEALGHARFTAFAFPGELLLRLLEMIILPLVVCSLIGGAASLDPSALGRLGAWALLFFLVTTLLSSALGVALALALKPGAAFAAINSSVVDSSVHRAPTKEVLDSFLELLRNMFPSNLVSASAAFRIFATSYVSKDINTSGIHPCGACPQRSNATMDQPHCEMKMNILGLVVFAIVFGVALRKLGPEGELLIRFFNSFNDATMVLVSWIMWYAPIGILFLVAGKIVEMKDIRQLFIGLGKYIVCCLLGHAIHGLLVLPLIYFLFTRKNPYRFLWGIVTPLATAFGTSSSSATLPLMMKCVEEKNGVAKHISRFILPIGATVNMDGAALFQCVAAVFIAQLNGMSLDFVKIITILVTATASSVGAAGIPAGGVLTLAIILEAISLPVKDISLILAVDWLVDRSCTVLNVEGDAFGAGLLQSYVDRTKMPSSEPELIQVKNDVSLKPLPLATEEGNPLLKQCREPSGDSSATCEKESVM
# Experimental: (§1) Human embryonic kidney 293 (HEK293, ATCC CRL-11268) cells were cultured in DMEM media supplemented with 10% (v v) fetal bovine serum (FBS), 2 mM glutamine, 1% penicillin streptomycin solution, 1 mM sodium pyruvate and non-essential amino acids. Cells were maintained at 37° C. in a fully humidified atmosphere containing 5% CO2. rASCT2, hASCT2, hASCT1, EAAT1, EAAT2, EAAC1, EAAT5 and YFP complementary DNAs were each used to transiently transfect HEK293 using POLYPLUS Jet-prime transfection reagent. Cells were analyzed using electrophysiological techniques 24-40 hours after transfection.
# (§2) Stock solutions of inhibitor was prepared in dimethyl sulfoxide (DMSO) up to 100 mM. Dilutions to working concentrations were made using external buffer. […] For rASCT2, hASCT2 and hASCT1, external buffer contained 140 mM NaCl, 2 mM MgCl2, 2 mM CaCl2), and 10 mM HEPES, pH 7.40 while internal pipette solution comprised of 130 mM NaSCN, 2 mM MgCl2, 10 mM EGTA, 10 mM HEPES and 10 mM alanine, pH 7.40. For specificity experiments with EAAT1, EAAT2, EAAC1 and EAAT5, internal solution contained 10 mM glutamate instead of alanine. Compounds were applied to HEK293 cells expressing DNA of interest suspended from a current recording electrode in whole cell configuration through a rapid solution exchange device. Cells are immersed in external buffer bath used to dissolve the inhibitors. The open pipette resistance was between 3 and 6 MΩ. Series resistance was not compensated in these experiments due to relatively small currents. Currents traces were recorded using an Adams and List EPC7 amplifier and digitized using a Molecular Devices Digidata A/D converter.
# (§3) Linear and nonlinear curve fitting of the experimental data were analyzed using MicroCal Origin software. Nonlinear dose-response relationships were fitted with a Michaelis-Menten-like equation to obtain apparent Ki values in the absence of substrate (see TABLE 2 for Ki values). The figures show representative current traces and dose-response curves for hACST2 and rASCT2, used to obtain Ki values in TABLE 2 for compound SN 40. At least four experiments were performed with at least three different cells. Error bars in all graphs, e.g., in FIG. 1B and FIG. 1C and tables (Ki values) represent mean±SD.
# hASCT2 [1] = biological target: T2, hASCT2 (Homo sapiens, UniProt Q15758); test: Electrophysiology (whole-cell current recording) of transfected HEK293 cells, hASCT2
# T2 construct: expressed in transfected cells; host or cells: HEK293 (ATCC CRL-11268), transient transfection
# T2 sequence (Q15758 1-541): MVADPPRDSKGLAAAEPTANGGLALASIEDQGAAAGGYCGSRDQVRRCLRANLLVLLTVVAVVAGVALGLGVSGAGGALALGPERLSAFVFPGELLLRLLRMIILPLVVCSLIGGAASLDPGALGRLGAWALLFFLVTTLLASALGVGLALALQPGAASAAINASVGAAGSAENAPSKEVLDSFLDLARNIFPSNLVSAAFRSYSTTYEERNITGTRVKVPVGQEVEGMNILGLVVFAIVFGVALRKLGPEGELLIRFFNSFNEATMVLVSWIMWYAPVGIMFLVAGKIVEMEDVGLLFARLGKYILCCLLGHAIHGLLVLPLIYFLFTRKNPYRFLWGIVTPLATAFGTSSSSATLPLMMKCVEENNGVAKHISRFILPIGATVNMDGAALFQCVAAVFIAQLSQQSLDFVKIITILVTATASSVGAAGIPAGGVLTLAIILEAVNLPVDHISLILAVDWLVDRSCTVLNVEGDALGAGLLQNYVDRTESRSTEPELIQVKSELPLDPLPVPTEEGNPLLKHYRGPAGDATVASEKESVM
# Experimental: as §1, §2, §3
# hASCT1 = biological target: T3, hASCT1 (Homo sapiens, UniProt P43007); test: Electrophysiology (whole-cell current recording) of transfected HEK293 cells, hASCT1
# T3 construct: expressed in transfected cells; host or cells: HEK293 (ATCC CRL-11268), transient transfection
# T3 sequence (P43007 1-532): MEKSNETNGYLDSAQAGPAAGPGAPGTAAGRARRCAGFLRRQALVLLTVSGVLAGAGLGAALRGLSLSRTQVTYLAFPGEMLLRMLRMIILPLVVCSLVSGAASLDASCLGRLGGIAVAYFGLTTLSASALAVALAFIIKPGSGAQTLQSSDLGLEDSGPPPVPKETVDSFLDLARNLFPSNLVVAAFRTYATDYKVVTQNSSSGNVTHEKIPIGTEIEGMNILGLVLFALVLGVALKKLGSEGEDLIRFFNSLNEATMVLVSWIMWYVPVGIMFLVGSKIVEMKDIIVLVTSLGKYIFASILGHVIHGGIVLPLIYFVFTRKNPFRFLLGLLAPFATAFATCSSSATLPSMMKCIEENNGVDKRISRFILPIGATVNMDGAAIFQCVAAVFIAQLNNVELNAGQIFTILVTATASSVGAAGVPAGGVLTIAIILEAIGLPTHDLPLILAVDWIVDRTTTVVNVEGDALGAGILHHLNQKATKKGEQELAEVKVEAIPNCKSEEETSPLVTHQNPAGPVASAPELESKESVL
# Experimental: as §1, §2, §3
# EAAT1 = biological target: T4, EAAT1 (Homo sapiens, UniProt P43003); test: Electrophysiology specificity experiment in transfected HEK293 cells, EAAT1; conditions: apparent Ki, HEK293, internal solution 10 mM glutamate, mean ± SD
# T4 construct: expressed in transfected cells; host or cells: HEK293 (ATCC CRL-11268), transient transfection
# Experimental: as §1, §2, §3
# hASCT2 [2] = biological target: T2, hASCT2; test: Competition experiment with alanine, hASCT2; conditions: 1 mM ala, first entry of the cell
# [3] = apparent Ki in the absence of substrate, HEK293, mean ± SD, read-out: Ki rASCT2
# [4] = apparent Ki in the absence of substrate, HEK293, mean ± SD, read-out: Ki hASCT2
# [5] = apparent Ki in the absence of substrate, HEK293, mean ± SD, read-out: Ki hASCT1
# [6] = Table 3, dihydroxyproline derivatives, read-out: Ki All DNA: rASCT2
# [7] = Table 3, dihydroxyproline derivatives, read-out: Ki All DNA: hASCT2
# [8] = Table 3, dihydroxyproline derivatives, read-out: Ki All DNA: hASCT1
# T4 sequence (P43003 whole entry, species assumed): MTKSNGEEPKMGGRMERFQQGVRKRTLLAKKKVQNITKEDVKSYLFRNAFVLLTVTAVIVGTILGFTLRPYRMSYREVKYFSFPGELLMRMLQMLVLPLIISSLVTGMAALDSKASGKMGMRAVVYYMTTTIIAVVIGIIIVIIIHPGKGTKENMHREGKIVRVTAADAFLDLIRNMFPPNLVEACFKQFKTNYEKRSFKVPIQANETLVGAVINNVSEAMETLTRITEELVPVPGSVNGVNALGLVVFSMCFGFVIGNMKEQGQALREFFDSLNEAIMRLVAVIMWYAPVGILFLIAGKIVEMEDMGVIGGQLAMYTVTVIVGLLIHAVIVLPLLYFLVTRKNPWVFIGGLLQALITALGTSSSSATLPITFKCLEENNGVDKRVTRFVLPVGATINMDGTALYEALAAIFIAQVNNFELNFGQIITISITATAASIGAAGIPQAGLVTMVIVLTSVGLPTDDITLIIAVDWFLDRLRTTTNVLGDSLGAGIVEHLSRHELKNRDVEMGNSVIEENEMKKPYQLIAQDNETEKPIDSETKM
SMILES,Ki (rASCT2; [3]) [nM],Ki (hASCT2 [1]; [4]) [nM],Ki (hASCT1; [5]) [µM],other results
O=C(O[C@@H]1CN[C@H](C(=O)O)C1)c1ccc(Oc2ccccc2)cc1 [SN 20],3680 ± 700,4170 ± 500,5.71 ± 0.9,–
N[C@@H](COCc1ccc(-c2ccccc2)cc1)C(=O)O [SN 38],380 ± 170,–,–,–
N[C@@H](COC(=O)c1ccc(-c2cccc(F)c2)cc1F)C(=O)O [SN 24],19700 ± 3100,–,–,–
N[C@H](C(=O)O)[C@H](CO)OC(=O)c1ccc(-c2ccccc2)cc1 [SN 36],6020 ± 1800,6380 ± 1200,–,–
N[C@H](C(=O)O)[C@@H](O)COC(=O)c1ccc(-c2ccccc2)cc1 [SN 34],3630 ± 1100,10000 ± 2800,–,–
O=C(Nc1ccc(C(=O)O[C@@H]2CN[C@H](C(=O)O)C2)cc1)c1ccc(C(F)(F)F)cc1 [SN 15],3370 ± 400,2940 ± 900,8.51 ± 3.9,Ki (EAAT1): 1.29 ± 0.2 µM
N[C@@H](CCOC(=O)c1ccc(-c2ccccc2)cc1)C(=O)O [SN 33],3510 ± 600,3500 ± 600,–,–
O=C(O[C@]1(CO)CN[C@H](C(=O)O)C1)c1ccc(Oc2ccccc2)cc1 [SN76],–,–,–,Ki (rASCT2; [6]): 20000 nM; Ki (hASCT2 [1]; [7]): 31900 nM; Ki (hASCT1; [8]): 12.2 µM
O=C(OC[C@@]1(O)CN[C@H](C(=O)O)C1)c1ccc(-c2ccccc2)cc1 [SN57],–,–,–,Ki (rASCT2; [6]): 3870 nM; Competition Expt % block (given as a decimal): hASCT2 (hASCT2 [2]): full; Ki (hASCT2 [2]; read-out: Competition Expt (h/rASCT2 Ki): hASCT2 Ki): 40 µM; Ki (hASCT2 [1]; [7]): 4550 nM; Ki (hASCT1; [8]): 6.61 µM
O=C(O[C@@H]1CN[C@H](C(=O)O)C1)c1ccc(C(O)c2ccccc2)cc1 (some centres unmarked) [SN 13],18800 ± 5000,5650 ± 1300,43 ± 13.4,Ki (EAAT1): 39.5 ± 19 µM
O=C(O[C@]1(CO)CN[C@H](C(=O)O)C1)c1ccc(-c2ccc(C(F)(F)F)cc2)cc1 [SN75],–,–,–,Ki (rASCT2; [6]): 3310 nM; Ki (hASCT2 [1]; [7]): 8070 nM; Ki (hASCT1; [8]): 1.17 µM
O=C(N[C@@H]1CN[C@H](C(=O)O)C1)c1ccc(-c2ccccc2)cc1 [SN 45],1680 ± 600,4690 ± 1100,–,–
O=C(Nc1cccc(C(=O)N[C@@H]2CN[C@H](C(=O)O)C2)c1)c1ccccc1 [SN 47],151000 ± 13300,227000 ± 34200,141 ± 17.6,–
O=C(Nc1cccc(C(=O)O[C@@H]2CN[C@H](C(=O)O)C2)c1)c1ccc(C(F)(F)F)cc1 [SN 17],–,–,9.97 ± 0.5,"Ki (rASCT2; apparent Ki in the absence of substrate, HEK293, nM, read-out: Ki rASCT2): < 100 nM; Ki (hASCT2 [1]; apparent Ki in the absence of substrate, HEK293, nM, read-out: Ki hASCT2): < 100 nM"
O=C(OC[C@@]1(O)CN[C@H](C(=O)O)C1)c1ccc(-c2cccc(F)c2)cc1F [SN60],–,–,–,Ki (rASCT2; [6]): 4870 nM; Ki (hASCT2 [1]; [7]): 4610 nM; Ki (hASCT1; [8]): 8.15 µM
O=C(Nc1ccc(CN[C@@H]2CN[C@H](C(=O)O)C2)cc1)c1ccccc1 [SN 43],27200 ± 1900,33600 ± 2500,20 ± 2.3,–
